Results from US10208088B1, “Low molecular polypeptide ZY4 and applications thereof” (Sichuan Synlight Biotech Ltd., priority 2015, dated 2019).
Converted amounts (≈) assume the structure as drawn. Read-outs that look alike come from different tables or passages of the source.

How the values were obtained:
lung cancer cell A549 = assay: MTT assay against lung cancer cell A549; type: cell-based
Protocol: 1. Collect the lung cancer cell A549 in the logarithmic phase to prepare cell suspension, adjust its concentration to 5×10^6-10×10^6/ml, add 100 ul to each hole, pave the plate to adjust the cell density to 1000-10000 holes; fill the holes on the edges with sterile PBS;
2. Incubate cells under the condition of 5% CO2 and 37° C. until the cell monolayer are paved on 96-hole plate bottom; after cell adhesion for 2-12 h, add the low molecular polypeptide ZY4 at a concentration of 100 ug/ml and 200 ug/ml, paclitaxel at a concentration of 10 ug/ml and 5 ug/ml to incubate for 16-48 h under the condition of 5% CO2 and 37° C., and then observe under an inverted microscope;
(§1) 3. Add 20 ul of 5 mg/ml MTT solution to each hole, to continue to culture 4 h, and then draw the culture solution in the hole;
(§2) 4. Add 150 ul of DMSO to each hole, place to a shaker for oscillation 10 min at a low speed, to allow the crystals fully dissolved, measure the absorbance values of each hole at OD 490 nm using a ELISA Reader; at the same time, set the zero hole and control hole.

Staphylococcus aureus = conditions: 37° C., 24 h
Protocol: (§5) Prepare Escherichia coli, Candida albicans, Staphylococcus aureus, Bacillus subtilis, Staphylococcus haemolyticus, Staphylococcus epidermidis, Staphylococcus cohnii solutions respectively, incubate at 37° C. for 18 h, for standby;
(§6) Prepare Broth Agar Medium, and sterilize it for standby;
(§7) Dissolve the Broth Agar Medium, cool down to 50° C., add 1 ml of Escherichia coli, Candida albicans, Staphylococcus aureus, Bacillus subtilis, Staphylococcus haemolyticus, Staphylococcus epidermidis, Staphylococcus cohnii solutions respectively, shake gently and pour into a sterile petri dish, gently shake the medium to evenly pave on the dish;
(§8) Place the filters into a cooled dish using a sterile tweezer orderly, cover with a tile cover and mark, then place to a 37° C. incubator for incubation for 24 h;

[1] = tested on: Staphylococcus cohnii (09B2490 anti-ampicillin); conditions: 37° C., 24 h
Protocol: as §5, §6, §7, §8

Escherichia coli = conditions: 37° C., 24 h
Protocol: as §5, §6, §7, §8

Bacillus subtilis = conditions: 37° C., 24 h
Protocol: as §5, §6, §7, §8

P. acnes ATCC6919 = conditions: 2 mg/ml ointment on left ear skin, treated for 1 day; 0.20 mm before treatment, PEG control 0.43 mm
Protocol: Select Kunming male mice at a weight of 18 g each, and randomly divide them into 3 groups, 9 mice each group, respectively the treatment group, positive control group, negative control group. Each mouse is anaesthetized with 50 ul of ketamine by intraperitoneal injection, and then injected with 20 ul of resuspended bacteria solution via intracutaneous injection in the left ear of each mouse;
Disinfect the left ears of mice with a clean alcohol cotton ball, and measure the thickness of the ears of mice, results are shown in FIG. 2.

P. acnes ATCC11817 = conditions: 2 mg/ml ointment on left ear skin, once every 8 h, 3 times, mice sacrificed 24 h later; PEG control 9.44×10^5
Protocol: Select Kunming male mice at a weight of 18 g each, and randomly divide them into 3 groups, 6 mice each group, respectively the treatment group, positive control group, negative control group. Each mouse is anaesthetized with 120 ul of 1% pentobarbital sodium by intraperitoneal injection, and then injected with 20 ul of resuspended bacteria solution via intracutaneous injection in the left ear of each mouse;
Disinfect the left ears of mice with a clean alcohol cotton ball, cut off the left ears into pieces, transfer to a homogenizer for homogenization. Add 1 ml of NS for homogenization for one ear;
Dilute the homogenate to 1,000-fold, take 50 ul of diluent and apply to a brain heart infusion agar plate, culture at 37° C. under the anaerobic condition for 72 h, and count the colonies.

[2] = tested on: gastric cancer cell SGC7901
Protocol: 1. Collect the gastric cancer cell SGC7901 in the logarithmic phase to prepare cell suspension, adjust its concentration to 5×10^6-10×10^6/ml, add 100 ul to each hole, pave the plate to adjust the cell density to 1000-10000 holes; fill the holes on the edges with sterile PBS;
(§3) 2. Incubate cells under the condition of 5% CO2 and 37° C. until the cell monolayer are paved on 96-hole plate bottom; after cell adhesion for 2-12 h, add the low molecular polypeptide ZY4 at a concentration of 50-300 ug/ml, and the same volume of NS as control, to incubate for 16-48 h under the condition of 5% CO2 and 37° C., and then observe under an inverted microscope;
as §1, §2

melanoma cell A357 = conditions: NS control 1.0
Protocol: 1. Collect the melanoma cell A357 in the logarithmic phase to prepare cell suspension, adjust its concentration to 5×10^6-10×10^6/ml, add 100 ul to each hole, pave the plate to adjust the cell density to 1000-10000 holes; fill the holes on the edges with sterile PBS;
(§4) 2. Incubate cells under the condition of 5% CO2 and 37° C. until the cell monolayer are paved on 96-hole plate bottom; after cell adhesion for 2-12 h, add the low molecular polypeptide ZY4 at a concentration of 100 ug/ml and 200 ug/ml, and the same volume of NS as control, to incubate for 16-48 h under the condition of 5% CO2 and 37° C., and then observe under an inverted microscope;
as §1, §2

[3] = tested on: Staphylococcus aureus (09B2499); conditions: 37° C., 24 h
Protocol: as §5, §6, §7, §8

liver cancer cell HepG2 = conditions: NS control 1.0
Protocol: 1. Collect the liver cancer cell HepG2 in the logarithmic phase to prepare cell suspension, adjust its concentration to 5×10^6-10×10^6/ml, add 100 ul to each hole, pave the plate to adjust the cell density to 1000-10000 holes; fill the holes on the edges with sterile PBS;
as §4, §1, §2

[4] = tested on: breast cancer cell MDA-435
Protocol: 1. Collect the breast cancer cell MDA-435 in the logarithmic phase to prepare cell suspension, adjust its concentration to 5×10^6-10×10^6/ml, add 100 ul to each hole, pave the plate to adjust the cell density to 1000-10000 holes; fill the holes on the edges with sterile PBS;
as §3, §1, §2

Candida albicans = conditions: 37° C., 24 h
Protocol: as §5, §6, §7, §8

[5] = tested on: Staphylococcus haemolyticus (09A4394 anti-ampicillin); conditions: 37° C., 24 h
Protocol: as §5, §6, §7, §8

[6] = tested on: Staphylococcus epidermidis (09A3726 anti-ampicillin); conditions: 37° C., 24 h
Protocol: as §5, §6, §7, §8

CC(=O)O[C@H]1C(=O)[C@@]2(C)[C@H]([C@H](OC(=O)c3ccccc3)[C@]3(O)C[C@H](OC(=O)[C@H](O)[C@@H](NC(=O)c4ccccc4)c4ccccc4)C(C)=C1C3(C)C)[C@]1(OC(C)=O)CO[C@@H]1C[C@@H]2O [paclitaxel, reference compound]
OD value (MTT, OD 490 nm) (lung cancer cell A549; A549, 10 ug/ml paclitaxel (first statement), 16-48 h): 0.5
OD value (MTT, OD 490 nm) (lung cancer cell A549; A549, 10 ug/ml paclitaxel (second statement), 16-48 h): 0.7

CC(C)[C@H](N)C(=O)N[C@H]1CSSC[C@@H](C(=O)N[C@H](C(N)=O)C(C)C)NC(=O)[C@H](Cc2c[nH]c3ccccc23)NC(=O)[C@H](CCCCN)NC(=O)[C@H](CCCCN)NC(=O)[C@H](Cc2c[nH]c3ccccc23)NC(=O)[C@H](CCCCN)NC(=O)[C@H](CCCNC(=N)N)NC(=O)[C@H](CCCCN)NC(=O)[C@H](Cc2c[nH]c3ccccc23)NC(=O)[C@H](CCCCN)NC(=O)[C@H](CCCCN)NC(=O)[C@H](Cc2c[nH]c3ccccc23)NC(=O)[C@H](CCCNC(=N)N)NC(=O)[C@H](CCCCN)NC1=O [ZY4]
Minimum inhibitory concentration (Staphylococcus aureus): 2.14 µg/mL (≈ 0.901 µM)
Minimum inhibitory concentration [1]: 1.10 µg/mL (≈ 0.463 µM)
Minimum inhibitory concentration (Escherichia coli): 12.15 µg/mL (≈ 5.12 µM)
Minimum inhibitory concentration (Bacillus subtilis): 1.10 µg/mL (≈ 0.463 µM)
thickness of mice ear (P. acnes ATCC6919): 0.25 mm
CFU of P. acnes after treatment (P. acnes ATCC11817): 2.1×10^5 CFU
OD value (MTT, OD 490 nm) ([2]; SGC7901, 50 ug/ml ZY4, 16-48 h): 0.65
OD value (MTT, OD 490 nm) ([2]; SGC7901, 100 ug/ml ZY4, 16-48 h): 0.57
OD value (MTT, OD 490 nm) ([2]; SGC7901, 200 ug/ml ZY4, 16-48 h): 0.2
OD value (MTT, OD 490 nm) ([2]; SGC7901, 300 ug/ml ZY4, 16-48 h): 0.09
OD value (MTT, OD 490 nm) (melanoma cell A357; A357, 100 ug/ml ZY4, 16-48 h): 1.0
OD value (MTT, OD 490 nm) (melanoma cell A357; A357, 200 ug/ml ZY4, 16-48 h): 0.72
Minimum inhibitory concentration [3]: 2.25 µg/mL (≈ 0.948 µM)
OD value (MTT, OD 490 nm) (liver cancer cell HepG2; HepG2, 100 ug/ml ZY4, 16-48 h): 0.89
OD value (MTT, OD 490 nm) (liver cancer cell HepG2; HepG2, 200 ug/ml ZY4, 16-48 h): 0.6
OD value (MTT, OD 490 nm) ([4]; MDA-435, 50 ug/ml ZY4, 16-48 h): 0.7
OD value (MTT, OD 490 nm) ([4]; MDA-435, 100 ug/ml ZY4, 16-48 h): 0.61
OD value (MTT, OD 490 nm) ([4]; MDA-435, 200 ug/ml ZY4, 16-48 h): 0.20
OD value (MTT, OD 490 nm) ([4]; MDA-435, 300 ug/ml ZY4, 16-48 h): 0.17
Minimum inhibitory concentration (Candida albicans): 2.12 µg/mL (≈ 0.893 µM)
Minimum inhibitory concentration [5]: 2.17 µg/mL (≈ 0.914 µM)
Minimum inhibitory concentration [6]: 2.45 µg/mL (≈ 1.03 µM)
OD value (MTT, OD 490 nm) (lung cancer cell A549; A549, 100 ug/ml ZY4, 16-48 h): 0.5
OD value (MTT, OD 490 nm) (lung cancer cell A549; A549, 200 ug/ml ZY4, 16-48 h): 0.3
